PubChem BioAssay AID1259338 (Broad Institute, 2017)
The source made the active and inactive calls.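 The calls were made as follows: active = compounds lowering the signal with a fitted AC50 at or below a set concentration limit; inconclusive = flat curve with 30 to 70% inhibition, or a poor fit; inactive = the rest.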

The compounds below were run against Caspase recruitment domain-containing protein 9 (Homo sapiens) + E3 ubiquitin-protein ligase TRIM62 (Homo sapiens) (UniProt Q9H257+Q9BVG3) (assay: disruptors of CARD9-TRIM62 binding, dose response, cell lysate, HEK293FT lysates, Luminex bead readout (AID 1259338; as to activity change, negative = inhibition: reference of the scale not given here)). Conditions: Luminex bead PPI, MFI.
Caspase recruitment domain-containing protein 9 (Homo sapiens) + E3 ubiquitin-protein ligase TRIM62 (Homo sapiens), sequence (Q9BVG3 whole entry, looked up, the tested form may be a part): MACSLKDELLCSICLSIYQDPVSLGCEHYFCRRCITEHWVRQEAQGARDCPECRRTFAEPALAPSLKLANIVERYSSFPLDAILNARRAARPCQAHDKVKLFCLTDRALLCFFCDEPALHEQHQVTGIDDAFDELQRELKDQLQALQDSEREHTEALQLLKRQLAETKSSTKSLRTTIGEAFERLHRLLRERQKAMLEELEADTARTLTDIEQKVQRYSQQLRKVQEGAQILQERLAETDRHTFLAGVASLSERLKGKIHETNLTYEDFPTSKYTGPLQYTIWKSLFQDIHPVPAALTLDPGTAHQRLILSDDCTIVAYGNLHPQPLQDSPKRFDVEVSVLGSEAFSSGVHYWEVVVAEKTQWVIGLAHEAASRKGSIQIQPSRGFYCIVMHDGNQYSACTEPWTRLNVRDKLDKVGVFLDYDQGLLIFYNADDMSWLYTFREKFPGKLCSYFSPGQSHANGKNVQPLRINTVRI
Caspase recruitment domain-containing protein 9 (Homo sapiens) + E3 ubiquitin-protein ligase TRIM62 (Homo sapiens), sequence (Q9H257 whole entry, looked up, the tested form may be a part): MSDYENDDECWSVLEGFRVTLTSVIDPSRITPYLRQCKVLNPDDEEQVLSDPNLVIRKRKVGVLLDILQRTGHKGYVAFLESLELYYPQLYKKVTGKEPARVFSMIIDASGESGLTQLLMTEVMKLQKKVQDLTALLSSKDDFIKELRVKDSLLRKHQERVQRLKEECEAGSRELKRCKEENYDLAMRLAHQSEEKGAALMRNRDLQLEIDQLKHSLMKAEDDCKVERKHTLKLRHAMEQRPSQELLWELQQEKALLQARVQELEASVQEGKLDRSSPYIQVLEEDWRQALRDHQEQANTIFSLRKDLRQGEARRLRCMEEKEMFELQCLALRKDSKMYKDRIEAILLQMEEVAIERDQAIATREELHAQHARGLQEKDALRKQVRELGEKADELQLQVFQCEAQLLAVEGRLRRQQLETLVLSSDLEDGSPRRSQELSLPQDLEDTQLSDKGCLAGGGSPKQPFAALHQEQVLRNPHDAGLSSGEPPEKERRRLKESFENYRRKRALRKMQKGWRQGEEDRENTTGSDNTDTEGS
O=[N+]([O-])c1cccc(-c2nnc3ccc4ccccc4n23)c1 gave an AC50 of 80.2 µM. CCCN1CCCn2nc(CNC(=O)[C@@H](N)Cc3ccc(O)cc3)cc2C1 gave an AC50 of 27.8 µM. Compound Cc1ccc(N2NC(c3ccc(Br)cc3)=CCC2=O)cc1 has an AC50 of 50.9 µM. In the case of CCN1CCN(C(=O)c2cc(-c3ccco3)nc3ccccc23)CC1, the AC50 is reported as 61.4 µM. With Cc1ncnc(N2CCC(c3nccn3Cc3cccnc3)CC2)c1C the AC50 was > 160 µM (inactive). In the case of O=C(NCCc1ccccc1)c1cc2cccnc2n(Cc2ccccc2)c1=O, the AC50 is reported as > 160 µM (inactive). For Cc1ccc2cc(CN(Cc3ccco3)S(C)(=O)=O)c(=O)[nH]c2c1, the AC50 was > 160 µM (inactive). In the case of Cc1noc(C)c1S(=O)(=O)Nc1ccc2c(c1)C(=O)N([C@H](C)CO)C[C@H](C)[C@@H](CN(C)C(=O)C1CCCCC1)OCCCC[C@H](C)O2, the AC50 is reported as > 160 µM (inactive). With NC(=O)C1(N2CCCCC2)CCN(c2ccc(NC(=O)c3ccccc3F)cc2C(=O)O)CC1 the AC50 was 42 µM. CCOC(=O)C1CCN(C(=O)CN(Cc2ccccc2)S(C)(=O)=O)CC1 was tested, and the AC50 was > 76 µM (inactive). O=C(Nc1nccs1)c1cc(-c2ccco2)nc2ccccc12 was tested, and the AC50 was > 160 µM (inactive). Cc1cncc(-c2ccc(S(N)(=O)=O)cc2F)c1 showed an AC50 of 53.4 µM.

Same assay, conditions: Luminex bead PPI, MFI, at 80 µM (top of the series)
For O=C(CCn1cncn1)N1CCC(n2cc(-c3ccccn3)nn2)CC1, the “activity change, negative = inhibition” value was “inactive”. In the case of N#Cc1sc2nc(-c3ccccc3)cc(-c3ccco3)c2c1N, the “activity change, negative = inhibition” value is reported as “inactive”. With CCN1CCOC(=O)C1CC(=O)Nc1cccc(C)c1 (centres undefined) the “activity change, negative = inhibition” value was “inactive”. In the case of Cc1scc(C(=O)NCc2ccco2)c1-c1ccccc1, the “activity change, negative = inhibition” value is reported as “inactive”. In the case of CC(=O)c1sc2nc(-c3ccco3)ccc2c1N, the “activity change, negative = inhibition” value is reported as “inactive”. With C[C@H](CO)N1C[C@H](C)[C@@H](CN(C)C(=O)C2CCCCC2)OCCCC[C@H](C)Oc2ccc(NS(=O)(=O)c3cccs3)cc2C1=O the “activity change, negative = inhibition” value was “inactive”. In the case of O=S(=O)(c1ccc(F)cc1)N1CN(Cc2ccco2)c2nc3ccccc3nc21, the “activity change, negative = inhibition” value is reported as “inactive”. With O=C1NC(c2ccc(Br)cc2)Nc2sc3c(c21)CCC3 (centres undefined) the “activity change, negative = inhibition” value was “inactive”. For O=C(CC1Nc2ccccc2OC1=O)Nc1ccc(Cl)cc1 (centres undefined), the “activity change, negative = inhibition” value was “inactive”. C[C@H](CO)N1C[C@H](C)[C@@H](CN(C)C(=O)C2CCCCC2)OCCCC[C@H](C)Oc2ccc(NS(=O)(=O)c3ccc(Cl)cc3)cc2C1=O was tested, and the “activity change, negative = inhibition” value was “inactive”. In the case of Cc1cc(C(=O)NCc2ccco2)on1, the “activity change, negative = inhibition” value is reported as “inactive”. For O=C(NCCc1ccco1)c1ccc(OCc2cn3ccccc3n2)cc1, the “activity change, negative = inhibition” value was “inactive”. With O=C(COC(=O)c1cc(-c2cccs2)nc2ccccc12)NCc1ccco1 the “activity change, negative = inhibition” value was “inactive”. For COCCCNC(=O)C1CCN(c2ccc(N3CCOCC3)nn2)CC1, the “activity change, negative = inhibition” value was “inactive”. In the case of CCOC(=O)c1ccc(-c2ccc(C3CC(=O)Nc4cc5c(cc43)OCCO5)o2)cc1 (centres undefined), the “activity change, negative = inhibition” value is reported as “inactive”. In the case of O=C1CS/C(=N\N=C\c2ccco2)N1c1ccccc1, the “activity change, negative = inhibition” value is reported as “inactive”. With O=C(CCCN1C(=O)NC2(CCCC2)C1=O)Nc1ccc(F)cc1 the “activity change, negative = inhibition” value was “inactive”. With O=S(=O)(Nc1nc2ccc(S(=O)(=O)N3CCCCC3)cc2s1)c1ccccc1 the “activity change, negative = inhibition” value was “inactive”. For C(=C\c1ccco1)/c1nc2ccccc2[nH]1, the “activity change, negative = inhibition” value was “inactive”. In the case of COc1ccc(-c2nc(SCC(=O)N3CCN(c4ccccc4OC)CC3)n[nH]2)cc1, the “activity change, negative = inhibition” value is reported as “inactive”. For CC(CCc1ccco1)N(C)S(=O)(=O)c1ccc2[nH]c(=O)ccc2c1 (centres undefined), the “activity change, negative = inhibition” value was “inactive”. CC(=O)Nc1ccc2nc3c(=O)n(C)c(=O)n(C)c3nc2c1 was tested, and the “activity change, negative = inhibition” value was “inactive”.
